The values below come from PubChem BioAssay AID248 (DTP/NCI, 2004).

The structures appear in SMILES notation. Toxic doses and inconclusive results are not listed.

In the assay the test system is L1210 leukemia ip in BDF1 mice, survival T/C. The experiment in a line: NCI In Vivo Anticancer Drug Screen. Data for tumor model L1210 Leukemia (intraperitoneal) in B6D2F1 (BDF1) mice. As to conditions: endpoint: mean survival time, higher = longer survival. Put shortly:
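Tumor was transplanted into mice, which were then dosed with test compound or vehicle alone. Survival was recorded for each group, and the treated figure was expressed relative to the control figure.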

[1] abbreviates: dose: 100.0 mg/kg/injection, schedule: Q04DX003 (ip), vehicle: saline with Tween-80.
Where [2] appears, read: dose: 200.0 mg/kg/injection, schedule: Q04DX003 (ip), vehicle: saline with Tween-80.
The mark [3] stands for this setting: dose: 400.0 mg/kg/injection, schedule: Q04DX003 (ip), vehicle: saline with Tween-80.
Where [4] appears, read: dose: 50.0 mg/kg/injection, schedule: Q01DX009 (ip), vehicle: Klucel (hydroxypropylcellulose) (HPC).
Setting [5] is: dose: 100.0 mg/kg/injection, schedule: Q01DX009 (ip), vehicle: Klucel (hydroxypropylcellulose) (HPC).
[6] abbreviates: dose: 100.0 mg/kg/injection, schedule: Q04DX003 (ip), vehicle: Klucel (hydroxypropylcellulose) (HPC).
Setting [7] is: dose: 200.0 mg/kg/injection, schedule: Q01DX009 (ip), vehicle: Klucel (hydroxypropylcellulose) (HPC).
The mark [8] stands for this setting: dose: 200.0 mg/kg/injection, schedule: Q04DX003 (ip), vehicle: Klucel (hydroxypropylcellulose) (HPC).
The mark [9] stands for this setting: dose: 100.0 mg/kg/injection, schedule: Q01DX001 (ip), vehicle: Klucel (hydroxypropylcellulose) (HPC).
Where [10] appears, read: dose: 200.0 mg/kg/injection, schedule: Q01DX001 (ip), vehicle: Klucel (hydroxypropylcellulose) (HPC).
Setting [11] is: dose: 400.0 mg/kg/injection, schedule: Q01DX001 (ip), vehicle: Klucel (hydroxypropylcellulose) (HPC).
Setting [12] is: dose: 400.0 mg/kg/injection, schedule: Q04DX003 (ip), vehicle: Klucel (hydroxypropylcellulose) (HPC).

On to `COc1ccc(/C=C2\N=C(c3cc(OC)c(OC)c(OC)c3)OC2=O)cc1OC`, for which the T/C is, setting by setting: (dose: 100.0 mg/kg/injection, schedule: Q04DX002 (ip), vehicle: Klucel (hydroxypropylcellulose) (HPC)) 123 % of control; (dose: 200.0 mg/kg/injection, schedule: Q04DX002 (ip), vehicle: Klucel (hydroxypropylcellulose) (HPC)) 101 % of control; (dose: 400.0 mg/kg/injection, schedule: Q04DX002 (ip), vehicle: Klucel (hydroxypropylcellulose) (HPC)) 101 % of control.
In the case of `Cc1cccc(C(=O)CC(O)(C(F)(F)F)C(F)(F)F)c1`, the T/C by setting is: (dose: 50.0 mg/kg/injection, schedule: Q04DX003 (ip), vehicle: saline with Tween-80) 98 % of control; under setting [1], 100 % of control; under setting [2], 91 % of control; under setting [3], 102 % of control.
Consider `O=C(Nc1ccc(C(=O)c2ccccc2)cc1)c1ccc(C(=O)Nc2ccc(C(=O)c3ccccc3)cc2)cc1`, for which the T/C was 93 % of control (dose: 100.0 mg/kg/injection, schedule: Q01DX001 (ip), vehicle: other); 86 % of control (dose: 200.0 mg/kg/injection, schedule: Q01DX001 (ip), vehicle: other); 89 % of control (dose: 400.0 mg/kg/injection, schedule: Q01DX001 (ip), vehicle: other).
`CN1CN(c2ccccc2)CSC1=S`: the T/C is, setting by setting: under setting [4], 102 % of control; under setting [5], 107 % of control; under setting [6], 94 % of control; under setting [7], 95 % of control; under setting [8], 89 % of control.
`OCc1ccccc1O`: the T/C is 105 % of control under setting [4]; 100 % of control under setting [9]; 102 % of control under setting [5]; 100 % of control under setting [10]; 102 % of control under setting [7]; 106 % of control under setting [11].
On to `Cc1cccc(C)c1NC(=O)N(CCCl)N=O`, for which the T/C was 150 % of control (dose: 5.7 mg/kg/injection, schedule: Q01DX Z (oral), vehicle: carboxymethylcellulose (CMC)); 206 % of control (dose: 13.0 mg/kg/injection, schedule: Q01DX Z (oral), vehicle: carboxymethylcellulose (CMC)); 192 % of control (dose: 16.0 mg/kg/injection, schedule: Q01DX001 (ip), vehicle: carboxymethylcellulose (CMC)); 170 % of control (dose: 20.0 mg/kg/injection, schedule: Q01DX Z (oral), vehicle: carboxymethylcellulose (CMC)); 308 % of control (dose: 31.0 mg/kg/injection, schedule: Q01DX001 (ip), vehicle: carboxymethylcellulose (CMC)); 156 % of control (dose: 62.0 mg/kg/injection, schedule: Q01DX001 (ip), vehicle: carboxymethylcellulose (CMC)). The T/C is 156 % of control (dose: 125.0 mg/kg/injection, schedule: Q01DX001 (ip), vehicle: carboxymethylcellulose (CMC)) and 91 % of control (dose: 187.0 mg/kg/injection, schedule: Q01DX001 (ip), vehicle: carboxymethylcellulose (CMC)).
Turning to `NC(CSSCC(NC(=O)C(F)(F)F)C(=O)O)C(=O)O` (centres undefined), the T/C was 96 % of control (dose: 50.0 mg/kg/injection, schedule: Q01DX001 (ip), vehicle: saline); 98 % of control (dose: 100.0 mg/kg/injection, schedule: Q01DX001 (ip), vehicle: saline); 93 % of control (dose: 200.0 mg/kg/injection, schedule: Q01DX001 (ip), vehicle: saline).
For the compound `CC(C)(N)COC(=O)c1ccc([N+](=O)[O-])cc1`, the T/C by setting is: (dose: 50.0 mg/kg/injection, schedule: Q01DX009 (ip), vehicle: acetone) 101 % of control; (dose: 100.0 mg/kg/injection, schedule: Q01DX009 (ip), vehicle: acetone) 101 % of control; (dose: 200.0 mg/kg/injection, schedule: Q01DX009 (ip), vehicle: acetone) 95 % of control.
Regarding `CCCCNS(=O)(=O)c1ccc(N)cc1`, the T/C (dose: 100.0 mg/kg/injection, schedule: Q01DX009 (ip), vehicle: saline sonified) was 102 % of control; the T/C under setting [6] was 98 % of control; the T/C (dose: 200.0 mg/kg/injection, schedule: Q01DX009 (ip), vehicle: saline sonified) was 102 % of control; the T/C under setting [8] was 109 % of control; the T/C (dose: 400.0 mg/kg/injection, schedule: Q01DX009 (ip), vehicle: saline sonified) is 98 % of control; the T/C under setting [12] is 117 % of control.
For the compound `Nc1nc(-c2ccccc2)c2ccccc2n1`, the T/C (dose: 100.0 mg/kg/injection, schedule: Q01DX001 (ip), vehicle: carboxymethylcellulose (CMC)) is 101 % of control; the T/C (dose: 200.0 mg/kg/injection, schedule: Q01DX001 (ip), vehicle: carboxymethylcellulose (CMC)) is 93 % of control; the T/C (dose: 400.0 mg/kg/injection, schedule: Q01DX001 (ip), vehicle: carboxymethylcellulose (CMC)) is 104 % of control.
Take `Nc1n[nH]c(N)n1.[Ni]`: the T/C was 101 % of control (dose: 100.0 mg/kg/injection, schedule: Q01DX009 (ip), vehicle: saline with Tween-80); 113 % of control under setting [1]; 111 % of control (dose: 200.0 mg/kg/injection, schedule: Q01DX009 (ip), vehicle: saline with Tween-80); 103 % of control under setting [2]; 104 % of control (dose: 400.0 mg/kg/injection, schedule: Q01DX009 (ip), vehicle: saline with Tween-80); 98 % of control under setting [3].
Take `O=C(O)c1nc[nH]c1C(=O)O`: the T/C was 102 % of control (dose: 100.0 mg/kg/injection, schedule: Q01DX009 (ip), vehicle: saline); 93 % of control under setting [6]; 104 % of control (dose: 200.0 mg/kg/injection, schedule: Q01DX009 (ip), vehicle: saline); 96 % of control under setting [8]; 94 % of control (dose: 400.0 mg/kg/injection, schedule: Q01DX009 (ip), vehicle: saline); 88 % of control under setting [12].
Regarding `N#CCCCCCl`, the T/C runs as follows: (dose: 6.0 mg/kg/injection, schedule: Q01DX009 (ip), vehicle: saline) 103 % of control; (dose: 12.0 mg/kg/injection, schedule: Q01DX009 (ip), vehicle: saline) 105 % of control; (dose: 12.0 mg/kg/injection, schedule: Q04DX003 (ip), vehicle: saline) 97 % of control; (dose: 25.0 mg/kg/injection, schedule: Q01DX009 (ip), vehicle: saline) 103 % of control; (dose: 25.0 mg/kg/injection, schedule: Q04DX003 (ip), vehicle: saline) 96 % of control.
With `CS(=O)(=O)OC1CCCCC1Sc1ccc(Br)cc1` (centres undefined), the T/C was 103 % of control under setting [9]; 101 % of control under setting [6]; 101 % of control under setting [10]; 101 % of control under setting [8]; 101 % of control under setting [11]; 106 % of control under setting [12].
`CCCCCc1[nH]c(=O)[nH]c(=O)c1S(=O)(=O)N1CCCCC1`: the T/C is, setting by setting: under setting [9], 107 % of control; under setting [10], 97 % of control; under setting [11], 110 % of control.
As for `COc1ccc2c(=O)c3ccccc3oc2c1`, the T/C reads like this: (dose: 100.0 mg/kg/injection, schedule: Q04DX003 (ip), vehicle: saline) 101 % of control; (dose: 200.0 mg/kg/injection, schedule: Q04DX003 (ip), vehicle: saline) 101 % of control; (dose: 400.0 mg/kg/injection, schedule: Q04DX003 (ip), vehicle: saline) 103 % of control.
With `COCC(=O)O`, the T/C was 100 % of control under setting [9]; 102 % of control (dose: 100.0 mg/kg/injection, schedule: Q04DX002 (ip), vehicle: saline); 96 % of control under setting [10]; 94 % of control (dose: 200.0 mg/kg/injection, schedule: Q04DX002 (ip), vehicle: saline); 100 % of control under setting [11]; 97 % of control (dose: 400.0 mg/kg/injection, schedule: Q04DX002 (ip), vehicle: saline).
